Values quoted from earlier work as cited in patent US7702465B2 (priority 2002, dated 2010).

Columns and labels:
[1] = molecular target: HLA A*0201 (Homo sapiens, UniProt P04439, /I218V/L300P/L318F/N151K/N90K/P208A/P217A/Q86G/Q94H/R138H/R169H/T345S); settings: binding to HLA A*0201; nonameric peptides from HPV E6 and E7; literature data of Rudolf et al. (2001)
[2] = molecular target: HLA A*0201 (Homo sapiens, UniProt P04439, D140Y/D185E/D98H/E176V/E277Q/G131W/G231S/I119V/I121R/I166T/I218V/L300P/L318F/N151K/N90K/P208A/P217A/Q86G/Q94H/R138H/R169H/T345S); settings: binding peptides = the 15 of 247 with IC50 3 to 943 nM (Rudolf et al. 2001)

Row | Sequence | IC50 [1] | classification as binder to HLA A*0201 [2]
1 | FAFKDLFVV | 3 nM | 
2 | FKDLFVVYR | 500 nM | 
3 | LFLNTLSFV |  | binding peptides
4 | LYNLLIRCL |  | binding peptides
